Assay [1] concerns P. falciparum gametocytes (WT / Pfrh3- control). Nature of the assay: Gametogenesis assay: rounding up, WT/control gametocytes. Format: cell-based, Plasmodium falciparum. The conditions noted are these: for stimulation of rounding up: live gametocytes, zaprinast in absence of XA. On the procedure: (§1) P. falciparum gametocytes were produced from the 3D7 clone in human A+ erythrocytes with 10% human serum (National Blood Service), and enriched using Nycodenz (Nycoprep 1.077; Axis-Shield) centrifugation as previously described. For gametogenesis, cells were resuspended at 5 × 10^6 parasites per millilitre and induced with either 20 μM XA or 25–400 μM zaprinast in complete medium, and a reduction (of >5 °C) in temperature. For gametogenesis assays, 10 min post induction, cells were mounted on a wet smear. […] Test reagents including zaprinast, BAPTA-AM, compound 1, and compound 2 were resuspended in DMSO as stock solutions and diluted in complete medium for gametogenesis assays, with the XA stock resuspended in RPMI 1640. The maximum final DMSO concentration in the gametogenesis medium was 0.4%, which was used as a negative control. […] Compound 1 and compound 2 were added at the point of activation with either XA or zaprinast, whereas cells were preincubated with 100 μM BAPTA-AM as previously described. Statistical multivariate analysis was carried out using Poisson regression (Stata 9.2; StataCorp) to compare the effects of genetic background (mutant vs. WT) and experimental replicate (included as categorical data in the analysis) on the rates of rounding up at individual drug concentrations. For each drug concentration, the mutants were tested separately against the WT control, and the resultant output was anti-logged to give the relative risk (and 95% confidence interval) for rounding up with genetic background.

Assay [2] deals with P. falciparum gametocytes. The experiment in a line: Gametogenesis assay: exflagellation. Format: cell-based, Plasmodium falciparum. The conditions noted are these: for inhibition of exflagellation: gametocytes stimulated with XA or zaprinast. On the procedure: as §1
Assay [3] has as its system P. falciparum gametocytes. The experiment in a line: Gamete emergence from erythrocytes, IFA with anti-Band 3 antibody. Format: cell-based, Plasmodium falciparum. As to conditions: pretreatment with BAPTA-AM. An excerpt: Figure 2 Intracellular Ca^2+ Is Not Required for the Initial Step of P. falciparum Gametogenesis To investigate the role of intracellular Ca^2+ in rounding up and exflagellation, stage V Pfrh3^− control gametocytes were pretreated with the BAPTA-AM (BP) before stimulation of gametogenesis with either XA or zaprinast (ZP). (A) (Upper panel) Gametocytes were scored as either round or crescent-shaped, and plotted as percentage rounded-up. […] (Lower panel) The number of centres of exflagellation per 10,000 gametocytes was scored. […] (B) Emergence from host erythrocytes before and after stimulation of gametogenesis with or without BAPTA-AM was scored using IFA with an anti-erythrocyte Band 3 monoclonal antibody. The proportion of cells not reacting with the antibody (indicative of complete emergence) was counted and plotted as a percentage.
For IFA, 3 × 10^6 mature P. falciparum gametocytes were fixed in paraformaldehyde according to a method used for P. berghei. Cells were washed thoroughly and allowed to settle on wells coated with 0.01% poly-L-lysine solution. […] Digital images were recorded using a side-mounted 1K 1.3M pixel High Sensitivity AMT Advantage ER CCD camera system.

Assay [4] concerns native PDE activity in P. falciparum particulate fractions. The experiment in a line: PDE assay: cGMP hydrolysis by native parasite particulate fractions. As to conditions: for IC50: cGMP substrate; for effect on native PDE enzyme activity: parasite particulate fractions. Format: biochemical, Plasmodium falciparum. How it is done: PDE activity in native parasite fractions was measured using a modification of a previously published method. Parasites were frozen in liquid nitrogen and stored at −80 °C until use. Parasites were resuspended in 500 μl of lysis buffer (20 mM hepes and 250 mM sucrose [pH 7.0]), subjected to five cycles of freeze–thaw in liquid nitrogen and pelleted at 100,000 g for 30 min. Particulate fractions were resuspended in lysis buffer containing EDTA-free protease inhibitors (Roche). PDE assays were carried out in triplicate wells of a 96-well plate in the presence of [^3H]-labelled cGMP (GE Healthcare) for 30 min at 37 °C. Reactions were terminated by boiling the plate for 1 min, followed by a 3-min centrifugation at 900 g. One unit of alkaline phosphatase was added to each well and incubated for 30 min at 37 °C. [^3H]-labelled guanosine was separated from the radiolabelled cGMP substrate using ion exchange (BioRad AG 1 × 8 resin). Supernatants containing the [^3H]-labelled guanosine product were added to scintillation fluid (Optiphase Supermix; Wallac). Scintillation was measured using a Wallac 1450 Microbeta Liquid Scintillation Counter (Perkin Elmer) and PDE activity was expressed in picomoles cGMP/minute/milligram protein. Inhibition assays were carried out in the presence of compounds dissolved in DMSO. PDE assays for specific activity and IC50 determination were carried out at a native lysate dilution that gave 30% cGMP/cAMP hydrolysis.
Supplementary file pbio.0060139.st001.doc: Table S1 The Effect of PDE Inhibitors on Particulate Fractions Isolated from P. falciparum Sexual and Asexual Blood Stage Parasites IC50 values (the concentration of compound that gave 50% inhibition of native PDE activity) are mean ± SEM in micromolar and were calculated using the Prism software package (GraphPad Software). Percentage inhibition data were fitted to a sigmoidal dose-response curve using nonlinear regression. n.d., not determined; >200, sufficient inhibition was not observed for an IC50 calculation. The specific activity of cGMP hydrolysis measured in the individual life cycle stages (at a substrate concentration of 0.82 μM) is listed in the lower row. Specific activity data are mean ± SEM in picomoles cGMP/minute/milligram. (43 KB DOC) Click here for additional data file.

For a further assay, the system named is PfPKGT618Q gametocytes. Nature of the assay: Gametogenesis assay: rounding up, PfPKGT618Q gametocytes. Format: cell-based, Plasmodium falciparum. On the procedure: as §1
Supplementary file pbio.0060139.st002.doc: Table S2 Poisson Regression Analysis for Compound 1 Sensitivity of Rounding Up of Both Mutants Compared to WT Each rounding-up measurement was made by counting 200 cells and scoring for rounding up (or not rounding up). At each compound 1 concentration, rounding-up replicate counts for both clones were compared to WT values separately by Poisson regression analysis using the Stata 9.2 package (StataCorp). Where n < 2 (indicated by n.d.), data were excluded from the analysis. Compound 1 concentration (comp1) is shown in micromolar. The p-values from this analysis and the relative risk (RR) of rounding up with genetic background (and 95% confidence intervals [CI]) are shown. (38 KB DOC) Click here for additional data file.

A further assay deals with Eimeria. The conditions noted are these: cited from earlier work.
The next assay relates to T. gondii. As to conditions: cited from earlier work.
Where [5] appears, read: gametocyte particulate fraction, mean, read-out: IC50, inhibition of native PDE activity, Gametocyte.
Setting [6] is: schizont particulate fraction, read-out: IC50, inhibition of native PDE activity, Schizont.
Where [7] appears, read: ring particulate fraction, read-out: IC50, inhibition of native PDE activity, Ring.

Where two headings read alike, the source gives them in different places.

For `CC(=O)OCOC(=O)CN(CC(=O)OCOC(C)=O)c1ccccc1OCCOc1ccccc1N(CC(=O)OCOC(C)=O)CC(=O)OCOC(C)=O` [BAPTA-AM], the “inhibition of rounding up” value in assay [1] (control gametocytes stimulated with XA (or zaprinast)) is “failed to inhibit the rounding up”. The inhibition of exflagellation entry in assay [2] is “blocked exflagellation”. Further, in assay [3], the “emergence of gametes from erythrocytes” value was “reduced emergence of gametes from erythrocytes”.
`Cn1c(=O)c2c(ncn2C)n(C)c1=O` [Caffeine]: the concentration for half-maximal inhibition (IC50) in assay [4] (setting [5]) and in assay [4] (setting [6]) was more than 200 µM in each case. Also, the “effect on native PDE enzyme activity” value in assay [4] is “little or no effect”.
For `OCCN(CCO)c1nc(N2CCCCC2)c2nc(N(CCO)CCO)nc(N3CCCCC3)c2n1` [Dipyridamole], the IC50 in assay [4] (setting [5]) is more than 200 µM; in assay [4] (setting [7]), 6.5 µM; in assay [4] (setting [6]) it was 7 µM.
With `CCOC(=O)c1cnc2c(cnn2CC)c1NN=C(C)C` [Etazolate], the IC50 was 20.7 µM in assay [4] (setting [7]) and 17.6 µM in assay [4] (setting [6]).
`CC(C)Cn1c(=O)n(C)c(=O)c2[nH]cnc21` [IBMX]: the IC50 in assay [4] (setting [5]), in assay [4] (setting [7]) and in assay [4] (setting [6]) was more than 200 µM each time. For the same molecule, the “effect on native PDE enzyme activity” value in assay [4] is given as “little or no effect”.
With `COc1ccc(Cc2nccc3cc(OC)c(OC)cc23)cc1OC` [Papaverine], the results for the IC50 in assay [4] (setting [5]), in assay [4] (setting [7]) and in assay [4] (setting [6]) were more than 200 µM, 63.4 µM and 173 µM, respectively.
With `COc1ccc(C2CNC(=O)C2)cc1OC1CCCC1` (stereo not drawn) [Rolipram], the IC50 in assay [4] (setting [5]), in assay [4] (setting [7]) and in assay [4] (setting [6]) was more than 200 µM throughout.
Regarding `CCCc1nn(C)c2c(=O)[nH]c(-c3cc(S(=O)(=O)N4CCN(C)CC4)ccc3OCC)nc12` [Sildenafil], the results for the IC50 in assay [4] (setting [5]), in assay [4] (setting [7]) and in assay [4] (setting [6]) were 75.6 µM, 19.4 µM and 22.5 µM, respectively.
Turning to `Cn1c(=O)c2[nH]cnc2n(C)c1=O` [Theophylline], the IC50 in assay [4] (setting [5]) and in assay [4] (setting [6]) was more than 200 µM in each case. Also, the “effect on native PDE enzyme activity” value in assay [4] is recorded as “little or no effect”.
Regarding `COc1cc2c(cc1OC)-c1c/c(=N\c3c(C)cc(C)cc3C)n(C)c(=O)n1CC2` [Trequinsin], the values for the IC50 in assay [4] (setting [5]), in assay [4] (setting [7]) and in assay [4] (setting [6]) were 193 µM, 26.7 µM and 126 µM, respectively.
As to `O=C(O)c1cc(O)c2cccc(O)c2n1` [XA, xanthurenic acid], the “stimulation of rounding up” value in assay [1] is reported as “became spherical”.
With `CCCOc1ccccc1-c1nc2nn[nH]c2c(=O)[nH]1` [Zaprinast, zaprinast], the IC50 stood at 33.7 ± 1.3 µM in assay [4] (setting [5]), 3.5 µM in assay [4] (setting [7]) and 3 ± 1.2 µM in assay [4] (setting [6]). Moreover, the “effect on native PDE enzyme activity” value in assay [4] is “effective inhibitor”. The “stimulation of rounding up” value in assay [1] is listed as “stimulated rounding up”. In assay [1] (zaprinast 400 μM), the “level of rounding up induced compared with XA” value is “almost equivalent to those triggered by XA”. For the same molecule, the stimulation of exflagellation entry in assay [2] (in absence of XA) was “triggered both rounding up and exflagellation in a dose-dependent manner”. The “level of exflagellation induced compared with XA” value in assay [2] (zaprinast 400 μM) is “almost equivalent to those triggered by XA”.
Take `CN(C)Cc1ccn2c(-c3ccnc(N)n3)c(-c3ccc(F)cc3)nc2c1` [compound 2, 4-[7-[(dimethylamino)methyl]-2-(4-fluorophenyl)imidazo[1,2-a]pyridine-3-yl]pyrimidin-2-amine]: the “inhibitory effects on rounding up of PfPKGT618Q gametocytes” value in the assay on PfPKGT618Q gametocytes (2 μM, stimulation with zaprinast or XA) is on record as “absence of inhibitory effects”. Moreover, the “lower sensitivity of PfPKGT618Q gametocytes than control cells (rounding up)” value with PfPKGT618Q gametocytes (range of inhibitor concentrations, approximately) is reported as 10–20 fold. Besides, the inhibition of exflagellation entry in assay [2] is listed as “inhibited exflagellation in a dose-dependent manner”. Further, in assay [2] (unpublished data), the “difference in sensitivity of exflagellation between control and PfPKGT618Q cell lines” value is “no significant difference in sensitivity”. Besides, in the assay on Eimeria, the “effect on Eimeria infection in chickens” value is given as “cure”. For the same molecule, the “effect on infection by T. gondii in mice” value in the assay on T. gondii is on record as “cure”.

One may read the IC50 as the midpoint of a concentration-inhibition curve.

The values are drawn from publication PMC2408617, “Gametogenesis in Malaria Parasites Is Mediated by the cGMP-Dependent Protein Kinase” (PLoS Biology, 2008).
